Values quoted from earlier work as cited in patent US8633167B2, “Method for the protection of trees” (Syngenta Crop Protection LLC, priority 2006, dated 2014).

What was measured:
SPB [1] = conditions: applied to foliage at two different rates; cited from earlier work
SPB [2] = conditions: applied by Mauget Injectors; cited from earlier work

Structure (SMILES)	SPB larval survival (SPB [1])	effect on eggs, pupae, callow or parent adults (SPB [1])	egg gallery length (SPB [2])	subsequent brood production (SPB [2])
COP(=O)(NC(C)=O)SC (stereo not shown) [acephate]	reduce	no effect		
COP(=O)(OC)O/C(C)=C/C(=O)N(C)C [dicrotophos]			significantly reduce	significantly reduce
